Results taken from the NIST ThermoML archive (doi:10.1021/acs.jced.7b00769).

Assay: xn = mol fraction of the nth substance listed
Conditions: Gas, isochoric method

F/C=C\C(F)(F)F [(Z)-1,3,3,3-tetrafluoro-1-propene] + CC(C)C
Conditions	specific volume [m3/kg]
303.15 K, 145.9 kPa, x2 = 0.118	0.152
303.15 K, 155.7 kPa, x2 = 0.222	0.1514
303.15 K, 206.5 kPa, x2 = 0.427	0.127
303.15 K, 213.5 kPa, x2 = 0.51	0.1286
308.15 K, 148.7 kPa, x2 = 0.118	0.152
308.15 K, 158.6 kPa, x2 = 0.222	0.1514
308.15 K, 210.5 kPa, x2 = 0.427	0.127
308.15 K, 217.4 kPa, x2 = 0.51	0.1286
313.15 K, 151.4 kPa, x2 = 0.118	0.1521
313.15 K, 161.5 kPa, x2 = 0.222	0.1515
313.15 K, 214.4 kPa, x2 = 0.427	0.1271
313.15 K, 221.3 kPa, x2 = 0.51	0.1286
313.15 K, 398.1 kPa, x2 = 0.658	0.0757
318.15 K, 154 kPa, x2 = 0.118	0.1521
318.15 K, 164.3 kPa, x2 = 0.222	0.1515
318.15 K, 218.3 kPa, x2 = 0.427	0.1271
318.15 K, 225.2 kPa, x2 = 0.51	0.1287
318.15 K, 362.3 kPa, x2 = 0.725	0.0906
318.15 K, 406.6 kPa, x2 = 0.658	0.0758
323.15 K, 156.8 kPa, x2 = 0.118	0.1521
323.15 K, 167.2 kPa, x2 = 0.222	0.1515
323.15 K, 222.2 kPa, x2 = 0.427	0.1271
323.15 K, 229.2 kPa, x2 = 0.51	0.1287
323.15 K, 369.1 kPa, x2 = 0.725	0.0906
323.15 K, 414.5 kPa, x2 = 0.658	0.0758
328.15 K, 159.4 kPa, x2 = 0.118	0.1522
328.15 K, 170 kPa, x2 = 0.222	0.1516
328.15 K, 226 kPa, x2 = 0.427	0.1271
328.15 K, 233.1 kPa, x2 = 0.51	0.1287
328.15 K, 375.8 kPa, x2 = 0.725	0.0906
328.15 K, 423.1 kPa, x2 = 0.658	0.0758
333.15 K, 162 kPa, x2 = 0.118	0.1522
333.15 K, 172.7 kPa, x2 = 0.222	0.1516
333.15 K, 229.8 kPa, x2 = 0.427	0.1272
333.15 K, 237 kPa, x2 = 0.51	0.1287
333.15 K, 382.5 kPa, x2 = 0.725	0.0907
333.15 K, 430.7 kPa, x2 = 0.658	0.0758
338.15 K, 164.6 kPa, x2 = 0.118	0.1522
338.15 K, 175.4 kPa, x2 = 0.222	0.1516
338.15 K, 233.6 kPa, x2 = 0.427	0.1272
338.15 K, 240.9 kPa, x2 = 0.51	0.1288
338.15 K, 389.1 kPa, x2 = 0.725	0.0907
338.15 K, 438.4 kPa, x2 = 0.658	0.0758
343.15 K, 167.2 kPa, x2 = 0.118	0.1523
343.15 K, 178.2 kPa, x2 = 0.222	0.1517
343.15 K, 237.3 kPa, x2 = 0.427	0.1272
343.15 K, 244.7 kPa, x2 = 0.51	0.1288
343.15 K, 395.8 kPa, x2 = 0.725	0.0907
343.15 K, 446 kPa, x2 = 0.658	0.0758
348.15 K, 169.8 kPa, x2 = 0.118	0.1523
348.15 K, 180.8 kPa, x2 = 0.222	0.1517
348.15 K, 241.1 kPa, x2 = 0.427	0.1272
348.15 K, 248.6 kPa, x2 = 0.51	0.1288
348.15 K, 402.5 kPa, x2 = 0.725	0.0907
348.15 K, 453.6 kPa, x2 = 0.658	0.0759
353.15 K, 172.5 kPa, x2 = 0.118	0.1523
353.15 K, 183.7 kPa, x2 = 0.222	0.1517
353.15 K, 244.7 kPa, x2 = 0.427	0.1273
353.15 K, 252.4 kPa, x2 = 0.51	0.1288
353.15 K, 409.1 kPa, x2 = 0.725	0.0907
353.15 K, 461.2 kPa, x2 = 0.658	0.0759
358.15 K, 175.1 kPa, x2 = 0.118	0.1524
358.15 K, 186.5 kPa, x2 = 0.222	0.1518
358.15 K, 248.6 kPa, x2 = 0.427	0.1273
358.15 K, 256.3 kPa, x2 = 0.51	0.1289
358.15 K, 415.6 kPa, x2 = 0.725	0.0908
358.15 K, 468.5 kPa, x2 = 0.658	0.0759
363.15 K, 177.7 kPa, x2 = 0.118	0.1524
363.15 K, 189.4 kPa, x2 = 0.222	0.1518
363.15 K, 252.3 kPa, x2 = 0.427	0.1273
363.15 K, 260.1 kPa, x2 = 0.51	0.1289
363.15 K, 422.1 kPa, x2 = 0.725	0.0908
363.15 K, 476 kPa, x2 = 0.658	0.0759
368.15 K, 180.3 kPa, x2 = 0.118	0.1524
368.15 K, 192.1 kPa, x2 = 0.222	0.1518
368.15 K, 256 kPa, x2 = 0.427	0.1274
368.15 K, 263.9 kPa, x2 = 0.51	0.1289
368.15 K, 428.6 kPa, x2 = 0.725	0.0908
368.15 K, 483.4 kPa, x2 = 0.658	0.0759
373.15 K, 182.9 kPa, x2 = 0.118	0.1525
373.15 K, 194.9 kPa, x2 = 0.222	0.1519
373.15 K, 259.8 kPa, x2 = 0.427	0.1274
373.15 K, 267.8 kPa, x2 = 0.51	0.129
373.15 K, 435.2 kPa, x2 = 0.725	0.0908
373.15 K, 490.9 kPa, x2 = 0.658	0.0759
378.15 K, 185.5 kPa, x2 = 0.118	0.1525
378.15 K, 197.7 kPa, x2 = 0.222	0.1519
378.15 K, 263.6 kPa, x2 = 0.427	0.1274
378.15 K, 271.7 kPa, x2 = 0.51	0.129
378.15 K, 441.7 kPa, x2 = 0.725	0.0908
378.15 K, 498.2 kPa, x2 = 0.658	0.076
383.15 K, 188.1 kPa, x2 = 0.118	0.1525
383.15 K, 200.5 kPa, x2 = 0.222	0.1519
383.15 K, 267.4 kPa, x2 = 0.427	0.1274
383.15 K, 275.5 kPa, x2 = 0.51	0.129
383.15 K, 448.3 kPa, x2 = 0.725	0.0909
383.15 K, 505.8 kPa, x2 = 0.658	0.076
